Measurements as given in US20210275480A1, “COMPOSITIONS AND METHODS FOR THE REDUCTION OR TREATMENT OF FIBROSIS” (AXCELLA HEALTH INC., priority 2018, published 2021).

Experiments:
[1] = tested on: procollagen Iα1 secretion, primary human hepatic stellate cells; assay: Procollagen Iα1 secretion by TGFβ1-stimulated primary human hepatic stellate cells, ELISA; format: cell-based; conditions: for procollagen Iα1 secretion: primary human hepatic stellate cells, three healthy donors, TGFβ1 3 ng/mL 24 h, summary in words
Experimental: Primary human hepatic stellate cells were obtained from Samsara Sciences. Cells were grown in Complete HSC Medium to ˜80% confluence in T75 or T150 flasks below passage 10 were seeded into sterile, collagen I coated, 96-well optical plastic microplates (ThermoScientific, 152036) and incubated overnight at 37° C., 5% CO2 in a humidified incubator in DMEM with 2% Fetal Bovine Serum and 1% Antibiotic-Antimycotic. After the overnight incubation, plates are washed and pretreated with medium±single amino acid dropout, 1×HMDB DMEM±supplemental amino acid dose for 10.5 hours. After 10.5 hour pretreatment, the same pretreatment medium supplemented with 3 ng/mL TGFβ1, was applied and incubated for 24 hours at 37° C., 5% CO2. After 24 hour stimulus, supernatant was removed, RNA was extracted and gene expression was evaluated using the ΔΔCq method within each single amino acid dropout and supplementation by normalizing to its own 1×HMDB concentration.
Human Procollagen 1α1 was measured from the supernatant by ELISA (Human ProCollagen I alpha 1 DuoSet ELISA, R&D Systems) at 1/100 dilution in 1× Reagent Diluent (Reagent Ancillary Kit 2, R&D Systems).
Tables 32, 33, 33-1, 33-2, 33-3, and 33-4 show the fold change in procollagen Iα1 in primary human hepatic stellate cells from three different healthy donors normalized to their respective baseline amino acid conditions. Statistical significance calculated by one-way

FATZO mice (NASH) = assay: FATZO mouse western diet + fructose NASH model (Example 6): body and liver weight, liver histology, NAS, fibrosis, Sirius Red; format: in vivo; conditions: WDF-fed FATZO mice
Description: In one example, the effects of […] and related amino acid compositions in the obesity, metabolism-driven non-alcoholic steatohepatitis (NASH) in FATZO mouse model was examined.
NASH was induced in 60 male FATZO mice by a western diet (Research Diet #D12079B; fat 40% kcal, protein 17% kcal, carbohydrate 43% kcal) supplemented with 5% fructose in the drinking water (WDF) during a 16 week induction phase. Diets and water were available ad libitum. Littermate control male FATZO mice fed with a control diet (n=6, Purina #5008; fat 17% kcal, protein 27% kcal, carbohydrate 56% kcal) and sterile water were set up for control purpose. Mice were housed in plastic cages with microisolator. Sterilized bedding was replaced once a week. Mice were housed three per cage and maintained on a twelve hour light cycle throughout study duration. Room temperature was monitored daily and maintained at 22-25° C. Body weight was recorded every week during the induction phase.
Following 16 weeks diet induction, 6 mice remained on control diet (group 1, Control) while 60 induced mice were randomized on body weight and plasma glucose (fed) for assignment to the following treatments. FATZO mice were administered with test articles starting at 16 weeks post western diet NASH induction for 4 weeks. Test articles were administered by oral gavage. Animals were euthanized at 20 weeks post western diet NASH induction, and tissues were harvested for analysis.
[…], […]+G, LRQNAC, and OCA (Advanced ChemBlocks, Inc.), incipient, and water for irrigation were provided by Axcella Health, Inc. 0.5% Methylcellulose was provided by CrownBio, Inc. Dosing solutions were prepared according to Appendix 1. […] Obeticholic acid (OCA) was suspended in 0.5% methylcellulose in water for irrigation. All test articles were stored refrigerated. TA compounds were provided in frozen powder form by the sponsor. Dosing was continued for 4 weeks.
Leucine dosages of […]+G and LRQNAC were matched to that of […].
[…], […]+G, LRQNAC, OCA and Vehicle were administered by oral gavage at a volume of 10 mL/kg throughout the study. Dosages were calculated by daily body weight. […], […]+G, LRQNAC, and Vehicle were administered twice per day (BID), while OCA was administered once a day (QD) in the morning. Mice receiving OCA once per day (QD), and one vehicle QD. Doses were administered by oral gavage at 0700 and 1800 by oral gavage for 4 weeks.
The viability, clinical signs and behavior were monitored daily. Body weight was recorded daily during the dosing period. Blood samples were collected weekly in the AM (0700) via tail clip for glucose measurement (StatStrip glucometer).
Animals were anesthetized with CO2 inhalation and exsanguinated via cardiac puncture for euthanasia. Terminal blood samples (K2EDTA) were obtained by cardiac puncture in anesthetized animals at termination. Samples were provided frozen to Axcella Health. Organ weights (total liver, gonadal fat pads) were recorded. Pancreas, and small intestine and gonadal fat pads were fixed in 10% Buffered Formalin and prepared as directed in protocol. A section of small intestine, gonadal fat pad and liver were also snap frozen in liquid nitrogen and shipped to the sponsor.
The liver tissues were fixed in Bouin's solution at 4° C. for 24 hours followed by baths of standard concentrations of alcohol then xylene to prepare the tissues for paraffin embedding. After being embedded in paraffin and cooled, five-micron sections were cut and stained for routine H&E and Picric Sirius Red. A section of both right and left lobes of the livers were frozen in OCT for analysis of lipid content with Oil-Red-) staining. The Aperio whole slide digital imaging system (Scan Scope CS, Vista, Calif.) was used for imaging. All slides were imaged at 20×. The scan time ranged from 1.5 minutes to a maximum time of 2.25 minutes. […]

[2] = OCA oral gavage QD, 4 weeks, mean ± SEM

CC[C@H](C)[C@H](N)C(=O)O [ILE, isoleucine]
Procollagen Ia1 Secretion (Fold Change of 1X), Mean ([1]; first donor, 66 μM (baseline, reference)): 1.0000 fold
Procollagen Ia1 Secretion (Fold Change of 1X), Mean ([1]; first donor, 1328 μM): 0.9229 fold
Procollagen Ia1 Secretion (Fold Change of 1X), Mean ([1]; first donor, 3320 μM): 1.1366 fold
Procollagen Ia1 Secretion (Fold Change of 1X), Mean ([1]; first donor, 6639 μM): 1.2144 fold
procollagen Iα1 secretion [1]: significantly increased procollagen Iα1 secretion in two of three donors
Procollagen Ia1 Secretion (Fold Change of 1X), Mean ([1]; second donor, single amino acid, 66 μM (1X reference)): 1.0000 fold change
Procollagen Ia1 Secretion (Fold Change of 1X), Mean ([1]; second donor, single amino acid, 1328 μM): 1.4811 fold change
Procollagen Ia1 Secretion (Fold Change of 1X), Mean ([1]; second donor, single amino acid, 3320 μM): 1.4940 fold change
Procollagen Ia1 Secretion (Fold Change of 1X), Mean ([1]; second donor, single amino acid, 6639 μM): 1.5423 fold change
Procollagen Ia1 Secretion (Fold Change of 1X), Mean ([1]; third donor, single amino acid, 66 μM (1X reference)): 1.0000 fold change
Procollagen Ia1 Secretion (Fold Change of 1X), Mean ([1]; third donor, single amino acid, 1328 μM): 1.2687 fold change
Procollagen Ia1 Secretion (Fold Change of 1X), Mean ([1]; third donor, single amino acid, 3320 μM): 1.2703 fold change
Procollagen Ia1 Secretion (Fold Change of 1X), Mean ([1]; third donor, single amino acid, 6639 μM): 1.4465 fold change

CC(C)[C@H](N)C(=O)O [VAL, valine]
Procollagen Ia1 Secretion (Fold Change of 1X), Mean ([1]; first donor, 234 μM (baseline, reference)): 1.0000 fold
Procollagen Ia1 Secretion (Fold Change of 1X), Mean ([1]; first donor, 4684 μM): 1.1203 fold
Procollagen Ia1 Secretion (Fold Change of 1X), Mean ([1]; first donor, 11710 μM): 1.2069 fold
Procollagen Ia1 Secretion (Fold Change of 1X), Mean ([1]; first donor, 23420 μM): 1.2139 fold
procollagen Iα1 secretion [1]: significantly increased procollagen Iα1 secretion in only one of two donors
Procollagen Ia1 Secretion (Fold Change of 1X), Mean ([1]; second donor, single amino acid, 234 μM (1X reference)): 1.0000 fold change
Procollagen Ia1 Secretion (Fold Change of 1X), Mean ([1]; second donor, single amino acid, 4684 μM): 1.2865 fold change
Procollagen Ia1 Secretion (Fold Change of 1X), Mean ([1]; second donor, single amino acid, 11710 μM): 1.2877 fold change
Procollagen Ia1 Secretion (Fold Change of 1X), Mean ([1]; second donor, single amino acid, 23420 μM): 1.3068 fold change
Procollagen Ia1 Secretion (Fold Change of 1X), Mean ([1]; third donor, single amino acid, 234 μM (1X reference)): 1.0000 fold change
Procollagen Ia1 Secretion (Fold Change of 1X), Mean ([1]; third donor, single amino acid, 4684 μM): 1.0428 fold change
Procollagen Ia1 Secretion (Fold Change of 1X), Mean ([1]; third donor, single amino acid, 11710 μM): 1.0498 fold change
Procollagen Ia1 Secretion (Fold Change of 1X), Mean ([1]; third donor, single amino acid, 23420 μM): 1.1139 fold change

CC[C@H]1[C@@H](O)[C@@H]2[C@H](CC[C@]3(C)[C@@H]([C@H](C)CCC(=O)O)CC[C@@H]23)[C@@]2(C)CC[C@@H](O)C[C@@H]12 [OCA, 6α-ethyl-chenodeoxycholic acid]
Fibrosis (liver fibrosis score) (FATZO mice (NASH); [2]): 0.67 ± 0.167
Liver Pathology: Inflammation (FATZO mice (NASH); [2]): 1.0 ± 0.0
Liver Pathology: NAS (FATZO mice (NASH); [2]): 3.72 ± 0.147
Sirius Red (collagen staining) (FATZO mice (NASH); [2]): 1.59 ± 0.36
Liver Pathology: Ballooning (FATZO mice (NASH); OCA oral gavage QD, 4 weeks, score 0-2, mean ± SEM): 0.94 ± 0.056
Liver Pathology: Steatosis (FATZO mice (NASH); OCA oral gavage QD, 4 weeks, score 0-3, mean ± SEM): 1.78 ± 0.147
Body weight change compared to baseline (FATZO mice (NASH); 4 weeks oral, LIVRQNAC 3000 mg/kg, LIVRQNAC+G 3885 mg/kg, LRQNAC 2469 mg/kg BID, OCA 30 mg/kg/day QD): −3.9±1.5%
Liver weight (% body weight) (FATZO mice (NASH); 4 weeks, LIVRQNAC 3000 mg/kg, LIVRQNAC+G 3885 mg/kg, LRQNAC 2469 mg/kg, OCA 30 mg/kg/day): 6.81±0.2 % body weight
